Measurements taken from patent publication US8017578B2, “Orally active peptides that prevent cell damage and death” (The United States of America as represented by the …, priority 1999, dated 2011).
Entries after “also recorded” stand apart in the source; their conditions may differ. Read-outs that look alike come from different tables or passages of the source. Square brackets hold non-standard residues; d marks the D form. Ends that are not written are not given here.

Columns and labels:
[1] = tested on: dissociated cerebral cortical cultures (neurons); format: cell-based, rat; conditions: 5 days
[2] = tested on: mice; assay: fetal alcohol syndrome (FAS) model in pregnant mice; conditions: for fetal demise rate: pretreatment 30 minutes prior to alcohol on E8, 20 μg (each), injection, assessed E18, vs alcohol group
[3] = tested on: choline acetyl transferase activity; conditions: ApoE-deficient mice with reduced choline acetyl transferase activity; cited from earlier work
[4] = tested on: AF64A-treated rats; assay: AF64A cholinotoxicity in adult rats, Morris water maze; format: in vivo; conditions: for Morris water maze, summation of the two daily tests, vs AF64A / Morris water maze, summation of the two daily tests: 10 microgram per rat per day under the tongue
Excerpt: FIGS. 14A and B illustrate the effect of oral administration of D-NAPVSIPQ+D-SALLRSIPA on learning and memory in rats treated with the cholinotoxin AF-64A. Short-term memory processes were examined by performance in the Morris water maze, measuring the time required to find the hidden platform in the second of two daily trials. The platform location and the starting point in which the animal was placed in the water were held constant within each pair of daily trials, but both locations were changed every day. For the first test, both the platform and the animal were situated in a new location with regard to the pool (with the pool being immobile). The experiment was performed as follows: the animal was positioned on the platform for 0.5 minute, then placed in the water. […] After 0.5 minute on the platform, the animal was placed back in the water (in the previous position) for an additional second test (FIG. 14B) and search for the hidden platform (retained in the previous position). The time required to reach the platform in the second trial was recorded, indicative of short-term (working) memory. All measurements were performed using the computerized video-assisted HVS water maze system (HVS Image Ltd. Hampton, UK). Animals were tested for four days to eliminate random memory defective animals. The designated n is the number of animals tested. Each point is the mean+the standard error.
Rats (male Wistar, 300-350 g) were subjected to two daily tests in a water maze, including a hidden platform (Morris, J. Neurosci. Methods 11:47-60 (1984) and Gordon et al., Neurosci. Lett. 199:1-4 (1995); Gozes et al., J. Neurobiol. 33:329-342 (1997)). Every day for the first test, both the platform and the animal were situated in a new location with regard to the pool (with the pool being immobile). The experiment was performed as follows: the animal was positioned on the platform for 0.5 minutes then placed in the water. The time required to reach the platform (indicative of learning and intact reference memory) was measured (first test). After 0.5 minute on the platform, the animal was placed back in the water (in the previous position) for an additional second test and search for the hidden platform (retained in the previous position). The time required to reach the platform in the second trial was recorded, indicative of short-term (working) memory. All measurements were performed using the computerized video-assisted HVS water maze system (HVS Image Ltd. Hampton, UK). Animals were tested for four days to eliminate random memory defective animals. The best performers were injected i.c.v. at a rate of 0.21 μl/min. with the cholinotoxin ethylcholine aziridium (AF64A, 3 nmolI2 μl/side), control animals received an injection of saline (Gozes et al, Proc. Natl. Acad. Sci. USA 93:427-432 (1996)).
Animals were allowed to recover for one week, followed by daily exposure to three micrograms of D-SAL+three micrograms of D-NAP, in 20 microliter saline, applied orally on the tongue. After a week of oral peptide application, the animals were subjected to two daily tests in the water maze (as above). During the test-period, animals were also given an oral administration of peptide or vehicle (carrier) an hour before the daily test.
FIG. 14C illustrates the effect of oral administration of D-SALLRSIPA alone on learning and memory in rats treated with the cholinotoxin AF-64A. Rats were treated with the cholinotoxin AF-64A and D-SALLRSIPA as described in Gozes et al., J. Pharmacol. Exp. Therap. 293: 1091-1098 (2000), except that D-SALLRSIPA was delivered to AF64A-treated rats was as follows: 10 microgram D-SALLRSIPA (D-SAL) per rat (250-300 g) per day in 50 microliter saline under the tongue, using a micropipette. Peptides were applied once daily for three days, a week after the AF64A lesion. After a 2-day cessation, peptides were applied once daily for another 5 days and tested from day three on. […]

[5] = single peptide, 1 μM tetrodotoxin, neuronal cell counts

Row | Substance | survival-promoting activity (preventing neuronal cell death associated with electrical blockade with TTX) [1, 5] | fetal demise rate [2] | cholinergic function [3] | further results
1 | Asn-Ala-Pro-Val-Ser-Ile-Pro-Gln [D-NAP] | very similar, with each exhibiting a complex dose response with two apparent maxima; also recorded: virtually identical in neuronal survival activity in vitro | significantly reduced the fetal demise rate; also recorded: prevents fetal demises | – | –
2 | Asn-Ala-Pro-Val-Ser-Ile-Pro-Gln [L-NAP, reference compound] | very similar, with each exhibiting a complex dose response with two apparent maxima; also recorded: virtually identical in neuronal survival activity in vitro | – | significantly increased cholinergic function to control levels | –
3 | D-NA{L-P}VSIPQ: NAPVSIPQ with all amino acids in the D-form, except the third proline residue in the L-form | – | – | – | survival-promoting activity (preventing neuronal cell death associated with electrical blockade with TTX) [1]: retained survival-promoting activity and was effective in cell culture in preventing neuronal cell death
4 | SALLRSIPA [L-SAL] | – | – | less effective | –
5 | SALLRSIPA [reference compound] | identical in both potency and efficacy; also recorded: virtually identical in neuronal survival activity in vitro | – | – | –
6 | Ser-Ala-Leu-Leu-Arg-Ser-Ile-Pro-Ala [D-SAL] ([dS][dA][dL][dL][dR][dS][dI][dP][dA]) | identical in both potency and efficacy; also recorded: virtually identical in neuronal survival activity in vitro | significantly reduced the fetal demise rate; also recorded: prevents fetal demises | – | learning and memory, overall conclusion ([4]; D-SALLRSIPA alone, oral, AF64A-treated rats): effective on its own; Morris water maze, summation of the two daily tests, vs AF64A ([4]; Day 1): P<0.04 D-SALLRSIPA-AF64A vs. AF64A; Morris water maze, summation of the two daily tests ([4]; Day 2): not significantly different from either AF64A animals or control; Morris water maze, summation of the two daily tests ([4]; Day 3): No difference; Morris water maze, summation of the two daily tests ([4]; Day 4): No difference; Morris water maze, summation of the two daily tests, vs AF64A ([4]; Day 5, t-test): P<0.04 D-SALLRSIPA-AF64A vs. AF64A; fetal death ([2]; oral by gavage 30 minutes prior to alcohol, 40 μg, assessed on E18): prevent fetal death
